Laboratory results published in patent US11484539B2, “Compounds and their uses for alleviating menopause-associated symptoms” (Estetra SPRL, priority 2018, dated 2022).

System: post-menopausal women
Assay: Weekly severity of moderate to severe VMS, dose-finding study
Type: in vivo
Description: To determine the Minimum Effective Dose (MED), firstly the selection criteria required that patients presented at least 7 moderate to severe VMS/day or at least 50 moderate to severe VMS/week in the week preceding randomization. Secondly, a placebo group was included in a double-blind fashion. Thirdly, the total patient number was such that statistical significance could be obtained between separate arms of the study. Fourthly, the absolute change from baseline in weekly frequency of moderate to severe VMS was taken into account. An analysis of covariance (ANCOVA) was performed based on the untransformed change in weekly frequency of moderate to severe VMS from baseline. Finally, the change in severity from baseline was evaluated. For this, the Severity Scoring System of VMS was documented by the subjects as follows: • a score of Mild (1) for a sensation of heat without sweating; • a score of Moderate (2) for a sensation of heat with sweating/the subject is able to continue activity; and • a score of Severe (3) for a sensation of heat with sweating/which causes cessation of activity.
In addition, a severity score of zero was attributed to the patients who have experienced a 100% VMS relief during a given week.
From these score records, the severity at baseline was calculated by taking into account only moderate and severe VMS, such that the total number of moderate VMS during the 7 days of the baseline week was multiplied by 2 and added to the total number of severe VMS during the 7 days of the baseline week multiplied by 3. This total was then divided by the total number of moderate and severe VMS during the baseline week.
The severity at weeks 4 and 12 was calculated using the following formula for each of these weeks: • the number of mild VMS during 7 days multiplied by 1; • the number of moderate VMS during 7 days multiplied by 2; • the number of severe VMS during 7 days multiplied by 3. and adding the 3 resulting numbers together before dividing this total by the total number of mild, moderate and severe VMS during the 7 days of the week.
This method was used to generate the data included in Example 1 further below, under section A. b) “VMS Severity”.
In order to better analyse the data recorded in this study, treatment groups have been compared using an ANCOVA (analysis of covariance) with respect to the change in severity of moderate to severe VMS from baseline to mild, moderate and severe VMS at week 4 and week 12 for each active treatment versus placebo. For women who experienced 100% VMS relief at week 4 and/or week 12, a value of zero was attributed. The ANCOVA model includes treatment (“trt1”) as a fixed effect and baseline (“base”) as a covariate. • b) Covariate significance

C[C@]12CC[C@@H]3c4ccc(O)cc4CC[C@H]3[C@@H]1[C@@H](O)[C@@H](O)[C@@H]2O [E4, 1,3,5 (10)-estratrien-3,15alpha,16alpha,17beta-tetrol]
LS adjusted mean change from baseline in weekly severity of moderate to severe VMS (2.5 mg E4, week 4): −0.3411
LS adjusted mean relative change from baseline in weekly severity of moderate to severe VMS (2.5 mg E4, week 4): −0.1453
LS adjusted mean change from baseline in weekly severity of moderate to severe VMS (2.5 mg E4, week 12): −0.6296
LS adjusted mean relative change from baseline in weekly severity of moderate to severe VMS (2.5 mg E4, week 12): −0.275
Mean change from baseline in weekly severity of moderate to severe VMS (2.5 mg E4 QD per os, week 1): −0.1542
Relative change (% from baseline) in weekly severity of moderate to severe VMS, mean (2.5 mg E4 QD per os, week 1): −7%
Mean change from baseline in weekly severity of moderate to severe VMS (2.5 mg E4 QD per os, week 2): −0.2112
Relative change (% from baseline) in weekly severity of moderate to severe VMS, mean (2.5 mg E4 QD per os, week 2): −9%
Mean change from baseline in weekly severity of moderate to severe VMS (2.5 mg E4 QD per os, week 3): −0.3246
Relative change (% from baseline) in weekly severity of moderate to severe VMS, mean (2.5 mg E4 QD per os, week 3): −14%
Mean change from baseline in weekly severity of moderate to severe VMS (2.5 mg E4 QD per os, week 4): −0.3373
Relative change (% from baseline) in weekly severity of moderate to severe VMS, mean (2.5 mg E4 QD per os, week 4): −15%
Mean change from baseline in weekly severity of moderate to severe VMS (2.5 mg E4 QD per os, week 5): −0.3984
Relative change (% from baseline) in weekly severity of moderate to severe VMS, mean (2.5 mg E4 QD per os, week 5): −17%
Mean change from baseline in weekly severity of moderate to severe VMS (2.5 mg E4 QD per os, week 6): −0.5014
Relative change (% from baseline) in weekly severity of moderate to severe VMS, mean (2.5 mg E4 QD per os, week 6): −22%
Mean change from baseline in weekly severity of moderate to severe VMS (2.5 mg E4 QD per os, week 7): −0.4562
Relative change (% from baseline) in weekly severity of moderate to severe VMS, mean (2.5 mg E4 QD per os, week 7): −20%
Mean change from baseline in weekly severity of moderate to severe VMS (2.5 mg E4 QD per os, week 8): −0.5359
Relative change (% from baseline) in weekly severity of moderate to severe VMS, mean (2.5 mg E4 QD per os, week 8): −24%
Mean change from baseline in weekly severity of moderate to severe VMS (2.5 mg E4 QD per os, week 9): −0.5465
Relative change (% from baseline) in weekly severity of moderate to severe VMS, mean (2.5 mg E4 QD per os, week 9): −24%
Mean change from baseline in weekly severity of moderate to severe VMS (2.5 mg E4 QD per os, week 10): −0.6052
Relative change (% from baseline) in weekly severity of moderate to severe VMS, mean (2.5 mg E4 QD per os, week 10): −26%
Mean change from baseline in weekly severity of moderate to severe VMS (2.5 mg E4 QD per os, week 11): −0.5564
Relative change (% from baseline) in weekly severity of moderate to severe VMS, mean (2.5 mg E4 QD per os, week 11): −25%
Mean change from baseline in weekly severity of moderate to severe VMS (2.5 mg E4 QD per os, week 12): −0.6279
Relative change (% from baseline) in weekly severity of moderate to severe VMS, mean (2.5 mg E4 QD per os, week 12): −28%
Difference with placebo, LS adjusted mean, absolute change in weekly severity of moderate to severe VMS (2.5 mg E4 vs placebo, week 4): −0.01329
Difference with placebo, LS adjusted mean, relative change in weekly severity of moderate to severe VMS (2.5 mg E4 vs placebo, week 4): −0.004358
Difference with placebo, LS adjusted mean, absolute change in weekly severity of moderate to severe VMS (2.5 mg E4 vs placebo, week 12): 0.02869
Difference with placebo, LS adjusted mean, relative change in weekly severity of moderate to severe VMS (2.5 mg E4 vs placebo, week 12): 0.004705
LS adjusted mean change from baseline in weekly severity of moderate to severe VMS (5 mg E4, week 4): −0.2386
LS adjusted mean relative change from baseline in weekly severity of moderate to severe VMS (5 mg E4, week 4): −0.09556
LS adjusted mean change from baseline in weekly severity of moderate to severe VMS (5 mg E4, week 12): −0.4026
LS adjusted mean relative change from baseline in weekly severity of moderate to severe VMS (5 mg E4, week 12): −0.1649
Mean change from baseline in weekly severity of moderate to severe VMS (5 mg E4 QD per os, week 1): −0.098
Relative change (% from baseline) in weekly severity of moderate to severe VMS, mean (5 mg E4 QD per os, week 1): −4%
Mean change from baseline in weekly severity of moderate to severe VMS (5 mg E4 QD per os, week 2): −0.1199
Relative change (% from baseline) in weekly severity of moderate to severe VMS, mean (5 mg E4 QD per os, week 2): −5%
Mean change from baseline in weekly severity of moderate to severe VMS (5 mg E4 QD per os, week 3): −0.1574
Relative change (% from baseline) in weekly severity of moderate to severe VMS, mean (5 mg E4 QD per os, week 3): −7%
Mean change from baseline in weekly severity of moderate to severe VMS (5 mg E4 QD per os, week 4): −0.2341
Relative change (% from baseline) in weekly severity of moderate to severe VMS, mean (5 mg E4 QD per os, week 4): −10%
Mean change from baseline in weekly severity of moderate to severe VMS (5 mg E4 QD per os, week 5): −0.1683
Relative change (% from baseline) in weekly severity of moderate to severe VMS, mean (5 mg E4 QD per os, week 5): −7%
Mean change from baseline in weekly severity of moderate to severe VMS (5 mg E4 QD per os, week 6): −0.3212
Relative change (% from baseline) in weekly severity of moderate to severe VMS, mean (5 mg E4 QD per os, week 6): −14%
Mean change from baseline in weekly severity of moderate to severe VMS (5 mg E4 QD per os, week 7): −0.2787
Relative change (% from baseline) in weekly severity of moderate to severe VMS, mean (5 mg E4 QD per os, week 7): −12%
Mean change from baseline in weekly severity of moderate to severe VMS (5 mg E4 QD per os, week 8): −0.3239
Relative change (% from baseline) in weekly severity of moderate to severe VMS, mean (5 mg E4 QD per os, week 8): −14%
Mean change from baseline in weekly severity of moderate to severe VMS (5 mg E4 QD per os, week 9): −0.3249
Relative change (% from baseline) in weekly severity of moderate to severe VMS, mean (5 mg E4 QD per os, week 9): −14%
Mean change from baseline in weekly severity of moderate to severe VMS (5 mg E4 QD per os, week 10): −0.3667
Relative change (% from baseline) in weekly severity of moderate to severe VMS, mean (5 mg E4 QD per os, week 10): −15%
Mean change from baseline in weekly severity of moderate to severe VMS (5 mg E4 QD per os, week 11): −0.4161
Relative change (% from baseline) in weekly severity of moderate to severe VMS, mean (5 mg E4 QD per os, week 11): −18%
Mean change from baseline in weekly severity of moderate to severe VMS (5 mg E4 QD per os, week 12): −0.4007
Relative change (% from baseline) in weekly severity of moderate to severe VMS, mean (5 mg E4 QD per os, week 12): −17%
Difference with placebo, LS adjusted mean, absolute change in weekly severity of moderate to severe VMS (5 mg E4 vs placebo, week 4): 0.08925
Difference with placebo, LS adjusted mean, relative change in weekly severity of moderate to severe VMS (5 mg E4 vs placebo, week 4): 0.04543
Difference with placebo, LS adjusted mean, absolute change in weekly severity of moderate to severe VMS (5 mg E4 vs placebo, week 12): 0.2557
